Residue numbers refer to the chain shown, from its start. Each block holds one molecule with its values, some of them ahead of it.
What was measured:
MCT1 [1] = target: T1, MCT1 (Homo sapiens, UniProt P53985); experiment: HEK cell intracellular pH (BCECF) / phloretin inhibition assay; format: cell-based; settings: HEK cells; for effect on the intracellular pH response to lactate: applied together with lactate
T1 sequence (P53985 1-500): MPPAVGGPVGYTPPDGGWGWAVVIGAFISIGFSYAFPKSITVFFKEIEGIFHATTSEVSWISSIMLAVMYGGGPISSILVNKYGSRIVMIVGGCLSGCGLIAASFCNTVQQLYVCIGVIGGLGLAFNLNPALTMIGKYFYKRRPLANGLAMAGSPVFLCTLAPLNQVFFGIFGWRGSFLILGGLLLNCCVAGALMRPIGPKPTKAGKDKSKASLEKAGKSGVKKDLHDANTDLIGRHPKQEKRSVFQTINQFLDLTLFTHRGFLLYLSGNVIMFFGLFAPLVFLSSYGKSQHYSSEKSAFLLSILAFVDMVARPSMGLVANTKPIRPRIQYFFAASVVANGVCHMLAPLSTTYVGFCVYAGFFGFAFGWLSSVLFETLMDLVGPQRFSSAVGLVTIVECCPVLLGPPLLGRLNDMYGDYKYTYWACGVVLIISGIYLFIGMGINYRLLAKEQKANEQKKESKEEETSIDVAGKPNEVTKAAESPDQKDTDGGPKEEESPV
Description: Because MCT1 transports both the carboxylate anion and the corresponding proton, a pH measuring assay was developed to measure net transport of protons into the cytoplasm. Intracellular pH can be measured by a pH-sensitive fluorescent dye such as BCECF. […] In the phloretin inhibition assay, the HEK cells are first exposed to a plurality of solutions containing various concentrations of the test compound (in FIG. 3, the model test compound is lactate) and then to the same solutions to which have been added a set (0.25 mM) concentration of phloretin. Thus, FIG. 3 is a graph of lactate concentration ([L]) versus the percent of maximum pH change found with administration of the highest concentration of the test compound (lactate) alone. […] This is because MCT1 co-transports lactate and a proton into the HEK cells, causing their internal pH to decrease. This pH lowering effect is shown by the characteristic reverse-S-shaped dose response upper curve in FIG. 3. When the cells are exposed to the solutions containing both lactate and phloretin, the phloretin inhibits the lactate uptake by MCT1 and there is little pH change in the cells, as shown by the relatively flat lower curve in FIG. 3. The phloretin inhibition assay can also be used to determine those carboxylic acids that are actively transported MCT substrates from those that are only passively absorbed across the cell membrane. In the latter case, when a passive absorbed acid is applied to HEK cells, there is an intracellular acidification, which occurs both with and without phloretin.
FIG. 4 is a graph of 2-TPGA concentration ([2-TPGA]) versus the relative percent decrease in intracellular pH compared to a standard decrease in intracellular pH caused by exposure of the cells to 20 mM lactate solution. When 0.25 mM phloretin was applied to these cells in addition to 2-TPGA, MCT1 transport was blocked and no significant pH change was detected.
FIG. 5 is a graph of sulfasalazine concentration ([sulfasalazine]) versus the relative percent decrease in intracellular pH compared to a standard decrease in intracellular pH caused by exposure of the cells to 20 mM lactate solution.

MCT4 [2] = target: T2, MCT4 (Homo sapiens, UniProt O15427); experiment: Xenopus oocyte ROMK electrophysiological pH assay, MCT4; format: cell-based; set-up: The complete open reading frame was cloned into a Xenopus oocyte expression plasmid; expressed in transfected cells; host or cells: Xenopus oocytes injected with cRNA
T2 sequence (O15427 1-465): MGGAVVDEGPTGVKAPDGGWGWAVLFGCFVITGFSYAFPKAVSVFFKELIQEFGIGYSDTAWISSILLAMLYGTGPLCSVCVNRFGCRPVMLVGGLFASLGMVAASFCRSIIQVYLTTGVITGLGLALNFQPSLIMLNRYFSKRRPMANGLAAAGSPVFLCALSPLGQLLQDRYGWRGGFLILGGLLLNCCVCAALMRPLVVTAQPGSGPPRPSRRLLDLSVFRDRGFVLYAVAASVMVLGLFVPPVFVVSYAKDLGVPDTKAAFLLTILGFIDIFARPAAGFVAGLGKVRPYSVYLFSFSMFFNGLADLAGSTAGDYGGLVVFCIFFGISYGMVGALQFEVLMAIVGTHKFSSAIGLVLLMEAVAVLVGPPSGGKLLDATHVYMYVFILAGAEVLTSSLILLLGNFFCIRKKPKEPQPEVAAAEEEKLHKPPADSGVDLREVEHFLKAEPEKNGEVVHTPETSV

MCT1 [3] = target: T3, MCT1 (Homo sapiens, UniProt P53985, D490E); experiment: Xenopus oocyte ROMK electrophysiological pH assay, MCT1; format: cell-based
T3 sequence (P53985 1-500 D490E): T1 sequence (P53985 1-500) with D490E

MCT1 [4] = target: T1, MCT1; settings: cited from earlier work
MCT4 [5] = target: T2, MCT4; settings: cited from earlier work

effect on the intracellular pH response to lactate (MCT1 [1]): inhibitor of MCT1
Compound: O=C(O)c1cc(/N=N/c2ccc(S(=O)(=O)Nc3ccccn3)cc2)ccc1O [sulfasalazine]

Compound: O=C(O)C(=O)c1cccs1 [Compound 2-TPGA, 2-thiophene glyoxylic acid]
substrate status from intracellular pH change with and without 0.25 mM phloretin (MCT1 [1]; FIG. 4): substrate for, and is actively transported by, MCT1

Compound: O=C(CCc1ccc(O)cc1)c1c(O)cc(O)cc1O [phloretin]
effect of co-application with lactate on the potassium current (MCT4 [2]; oocytes co-expressing ROMK and MCT4, 350 μM phloretin and 10 mM lactate): completely blocks the effect of lactate on the potassium current
intracellular pH change when applied alone (MCT1 [1]): does not cause an intracellular pH change
effect on the intracellular pH response to lactate (MCT1 [1]): completely blocks the lactate response
effect of co-application with lactate on the potassium current (MCT1 [3]; oocytes co-expressing ROMK and MCT1, 350 μM phloretin and 10 mM lactate): completely blocks the effect of lactate on the potassium current

Compound: CC(O)C(=O)O (centres unmarked) [lactate]
effect on ROMK potassium current (MCT4 [2]; oocytes co-expressing ROMK and MCT4, 10 mM lactate solution): strong inhibition of the potassium current
affinity for lactate (MCT1 [4]): ~2 mM
intracellular pH change when applied alone (MCT1 [1]): dose-dependent intracellular acidification
effect on ROMK potassium current (MCT1 [3]; oocytes co-expressing ROMK and MCT1, 10 mM lactate solution): strong inhibition of the potassium current
affinity for lactate (MCT4 [5]): ~40 mM

Source: patent US20090092553A1, “MONOCARBOXYLATE TRANSPORTERS EXPRESSED IN CANCER CELLS” (Xenoport,Inc., priority 2003, published 2009)
